{"source": "ChEMBL document CHEMBL1147379", "about": "“Antineoplastic agents, 256. Cell growth inhibitory isocarbostyrils from Hymenocallis” (1993)", "key": {"M5076": {"system": "M5076", "assay": "Growth inhibition of mouse M5076 cells", "type": "functional, cell-based"}, "P388": {"system": "P388", "assay": "Growth inhibition of mouse P388 cells", "type": "functional", "details": "read-out: ED50 (the source's name)"}}, "note": "The source made the active and inactive calls. No cut-off for these calls is given here.", "data": [{"smiles": "O=C1N[C@H]2[C@H](O)[C@H](O)[C@@H](O)[C@H](O)[C@@H]2c2cc3c(c(O)c21)OCO3", "note": "[PANCRATISTATIN]", "values": [{"measurement": "Activity", "setting": "M5076", "result": "Active"}, {"measurement": "EC50", "setting": "P388", "result": 0.01, "unit": "µg/mL"}]}]}
